According to ChEMBL document CHEMBL5058643, “Data for DCP probe BI-2081” (2022):
One block for each compound: values may come before it.

What was measured:
[1] = molecular target: MAO-A (amine oxidase [flavin-containing] A) (Rattus norvegicus, UniProt P21396); experiment: MAO-A_ANTAG Eurofins SafetyScreen44 (BI); set-up: mode of action antagonist; scale not given: the % may be the effect or the level left; settings: compound concentration 10 uM, read-out: % Ctrl
[2] = molecular target: Beta-2 adrenergic receptor (Homo sapiens) (UniProt P07550); experiment: BETA2/HUM Eurofins SafetyScreen44 (BI); settings: filed as antagonist, Compound concentration 10.0 uM
[3] = molecular target: Delta-type opioid receptor (Homo sapiens) (UniProt P41143); experiment: DELTA2/H Eurofins SafetyScreen44 (BI); settings: Compound concentration 10.0 uM
[4] = molecular target: Cannabinoid receptor 2 (Homo sapiens) (UniProt P34972); experiment: CB2/PERIPH/H Eurofins SafetyScreen44 (BI); settings: Compound concentration 10.0 uM
[5] = molecular target: Kappa-type opioid receptor (Homo sapiens) (UniProt P41145); experiment: KAPPA(KOP)_HU Eurofins SafetyScreen44 (BI); settings: Compound concentration 10.0 uM
[6] = molecular target: Glutamate receptor ionotropic, NMDA 2A (Rattus norvegicus) (UniProt Q00959); experiment: NMDA/R Eurofins SafetyScreen44 (BI); settings: Compound concentration 10.0 uM
[7] = molecular target: Endothelin-1 receptor (Homo sapiens) (UniProt P25101); experiment: ETA/H Eurofins SafetyScreen44 (BI); settings: Compound concentration 10.0 uM
[8] = molecular target: 5-hydroxytryptamine receptor 2A (Homo sapiens) (UniProt P28223); experiment: 5HT2AH_AGON Eurofins SafetyScreen44 (BI); settings: filed as agonist, Compound concentration 10.0 uM
[9] = molecular target: Androgen receptor (Homo sapiens) (UniProt P10275); experiment: ANDROGEN/H Eurofins SafetyScreen44 (BI); settings: Compound concentration 10.0 uM
[10] = molecular target: Histamine H1 receptor (Homo sapiens) (UniProt P35367); experiment: H1/H Eurofins SafetyScreen44 (BI)
[11] = molecular target: Voltage-dependent N-type calcium channel subunit alpha-1B (Rattus norvegicus) (UniProt Q02294); experiment: CA+/N/RA Eurofins SafetyScreen44 (BI); settings: Compound concentration 10.0 uM
[12] = molecular target: T1, Alpha-1A adrenergic receptor (Homo sapiens) (UniProt P35348); settings: Compound concentration 10.0 uM
T1 sequence (whole entry): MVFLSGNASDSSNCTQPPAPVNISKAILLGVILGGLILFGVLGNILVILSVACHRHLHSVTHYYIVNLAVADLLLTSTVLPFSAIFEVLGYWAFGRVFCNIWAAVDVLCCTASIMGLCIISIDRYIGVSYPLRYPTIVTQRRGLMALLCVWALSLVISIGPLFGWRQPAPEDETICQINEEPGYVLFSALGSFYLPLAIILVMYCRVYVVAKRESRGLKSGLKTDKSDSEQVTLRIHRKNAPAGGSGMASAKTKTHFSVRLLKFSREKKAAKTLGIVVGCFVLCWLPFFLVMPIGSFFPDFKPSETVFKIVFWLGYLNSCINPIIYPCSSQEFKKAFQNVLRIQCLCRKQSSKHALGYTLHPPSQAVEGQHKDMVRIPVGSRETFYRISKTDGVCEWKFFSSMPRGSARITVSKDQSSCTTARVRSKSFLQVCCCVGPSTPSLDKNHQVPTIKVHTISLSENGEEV

[13] = molecular target: Glutamate NMDA receptor (Rattus norvegicus) (UniProt P35439+Q00959+Q00960+Q00961+Q62645+Q8VHN2+Q9R1M7); experiment: NMDAAGSI/RA Eurofins SafetyScreen44 (BI); settings: filed as agonist, Compound concentration 10.0 uM
[14] = molecular target: Histamine H2 receptor (Homo sapiens) (UniProt P25021); experiment: H2/H Eurofins SafetyScreen44 (BI); settings: Compound concentration 10.0 uM
[15] = molecular target: Androgen receptor (Rattus norvegicus) (UniProt P15207); experiment: TESTOST/RA Eurofins SafetyScreen44 (BI); settings: Compound concentration 10.0 uM
[16] = molecular target: 5-hydroxytryptamine receptor 2B (Homo sapiens) (UniProt P41595); experiment: 5HT2B/HU Eurofins SafetyScreen44 (BI); settings: Compound concentration 10.0 uM
[17] = molecular target: Beta-2 adrenergic receptor (Homo sapiens) (UniProt P07550); experiment: BETA2/HU Eurofins SafetyScreen44 (BI); settings: Compound concentration 10.0 uM
[18] = molecular target: T1, Alpha-1A adrenergic receptor (Homo sapiens); experiment: ALPHA1A/R Eurofins SafetyScreen44 (BI); settings: Rattus norvegicus; Compound concentration 10.0 uM
[19] = molecular target: Adenosine receptor A1 (Homo sapiens) (UniProt P30542); experiment: A1/HU Eurofins SafetyScreen44 (BI); settings: Compound concentration 10.0 uM
[20] = molecular target: T2, Alpha-1D adrenergic receptor (Homo sapiens) (UniProt P25100); experiment: ALPHA1D/H Eurofins SafetyScreen44 (BI); settings: Compound concentration 10.0 uM
T2 sequence (whole entry): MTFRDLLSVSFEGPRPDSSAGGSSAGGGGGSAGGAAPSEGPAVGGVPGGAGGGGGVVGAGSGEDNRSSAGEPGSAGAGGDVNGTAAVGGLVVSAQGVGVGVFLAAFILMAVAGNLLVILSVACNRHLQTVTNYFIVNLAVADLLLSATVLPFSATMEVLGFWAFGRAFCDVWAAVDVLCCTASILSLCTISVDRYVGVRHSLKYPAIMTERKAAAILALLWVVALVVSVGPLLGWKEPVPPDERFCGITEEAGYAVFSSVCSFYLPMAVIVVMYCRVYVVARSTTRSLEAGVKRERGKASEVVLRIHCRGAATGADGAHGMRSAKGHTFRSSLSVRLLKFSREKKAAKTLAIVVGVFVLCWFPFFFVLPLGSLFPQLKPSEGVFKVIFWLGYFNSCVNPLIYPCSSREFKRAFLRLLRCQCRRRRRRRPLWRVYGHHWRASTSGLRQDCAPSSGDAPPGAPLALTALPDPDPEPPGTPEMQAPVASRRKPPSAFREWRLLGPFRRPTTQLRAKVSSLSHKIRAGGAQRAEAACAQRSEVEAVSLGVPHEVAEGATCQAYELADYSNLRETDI

[21] = molecular target: Muscarinic acetylcholine receptor M3 (Homo sapiens, UniProt P20309); experiment: GPCRScan assay: inhibition of M3; set-up: radioligand conc. used [nm] 0.3 – 1.0, parental cells stable CHO
[22] = molecular target: ATP-sensitive inward rectifier potassium channel 1 isoform X1 (Mesocricetus auratus) (UniProt A0A1U8CU73); experiment: K+/KATP/HA Eurofins SafetyScreen44 (BI); settings: Cricetinae; Compound concentration 10.0 uM
[23] = molecular target: Neuropeptide Y receptor type 1 (Homo sapiens) (UniProt P25929); experiment: Y1/HU Eurofins SafetyScreen44 (BI); settings: Compound concentration 10.0 uM
[24] = molecular target: Glucocorticoid receptor (Homo sapiens) (UniProt P04150); experiment: GLUCOCORTICO Eurofins SafetyScreen44 (BI); settings: Compound concentration 10.0 uM

Chain of Histamine H1 receptor (Homo sapiens) (P35367 whole entry): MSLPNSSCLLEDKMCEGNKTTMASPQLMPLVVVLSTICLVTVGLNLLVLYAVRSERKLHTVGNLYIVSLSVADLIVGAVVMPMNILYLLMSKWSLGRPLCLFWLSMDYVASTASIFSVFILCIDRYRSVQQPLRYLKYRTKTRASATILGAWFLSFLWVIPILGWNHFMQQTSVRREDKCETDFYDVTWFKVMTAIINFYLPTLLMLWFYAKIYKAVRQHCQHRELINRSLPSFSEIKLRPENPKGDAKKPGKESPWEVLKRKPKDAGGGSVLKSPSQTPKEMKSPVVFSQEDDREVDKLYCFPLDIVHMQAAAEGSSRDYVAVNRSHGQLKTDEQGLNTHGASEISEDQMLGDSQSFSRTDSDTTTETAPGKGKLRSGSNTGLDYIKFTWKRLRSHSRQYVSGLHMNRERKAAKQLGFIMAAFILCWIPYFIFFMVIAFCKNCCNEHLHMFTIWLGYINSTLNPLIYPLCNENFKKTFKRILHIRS
Chain of Muscarinic acetylcholine receptor M3 (P20309 whole entry, canonical isoform): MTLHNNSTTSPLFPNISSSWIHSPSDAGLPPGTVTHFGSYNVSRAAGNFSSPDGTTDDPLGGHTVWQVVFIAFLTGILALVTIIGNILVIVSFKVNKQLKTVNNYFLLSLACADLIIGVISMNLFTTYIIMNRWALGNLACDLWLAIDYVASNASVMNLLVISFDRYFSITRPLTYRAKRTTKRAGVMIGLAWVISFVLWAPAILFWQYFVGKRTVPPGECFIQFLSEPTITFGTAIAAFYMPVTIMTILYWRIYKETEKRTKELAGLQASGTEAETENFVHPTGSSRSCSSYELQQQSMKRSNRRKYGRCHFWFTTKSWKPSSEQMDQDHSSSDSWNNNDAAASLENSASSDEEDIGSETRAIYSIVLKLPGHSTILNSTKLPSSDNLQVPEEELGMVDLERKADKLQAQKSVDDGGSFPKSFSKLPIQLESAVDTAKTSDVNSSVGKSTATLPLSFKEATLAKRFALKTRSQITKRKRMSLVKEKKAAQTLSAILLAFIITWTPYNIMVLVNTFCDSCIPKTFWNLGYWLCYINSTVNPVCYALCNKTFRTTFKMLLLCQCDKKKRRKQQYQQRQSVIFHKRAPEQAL
Chain of Beta-2 adrenergic receptor (Homo sapiens) (P07550 whole entry, looked up): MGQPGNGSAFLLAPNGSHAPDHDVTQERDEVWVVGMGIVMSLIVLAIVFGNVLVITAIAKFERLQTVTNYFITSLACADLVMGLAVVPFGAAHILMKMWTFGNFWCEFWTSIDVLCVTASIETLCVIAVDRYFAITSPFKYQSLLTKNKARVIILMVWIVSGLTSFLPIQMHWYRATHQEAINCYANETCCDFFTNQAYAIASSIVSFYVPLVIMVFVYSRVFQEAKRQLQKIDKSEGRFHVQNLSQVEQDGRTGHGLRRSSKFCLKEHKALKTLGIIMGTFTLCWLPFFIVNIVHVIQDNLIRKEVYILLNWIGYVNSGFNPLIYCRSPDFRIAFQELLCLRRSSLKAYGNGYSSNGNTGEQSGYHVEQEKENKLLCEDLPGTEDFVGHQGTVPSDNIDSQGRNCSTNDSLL
Chain of Androgen receptor (Homo sapiens) (P10275 whole entry): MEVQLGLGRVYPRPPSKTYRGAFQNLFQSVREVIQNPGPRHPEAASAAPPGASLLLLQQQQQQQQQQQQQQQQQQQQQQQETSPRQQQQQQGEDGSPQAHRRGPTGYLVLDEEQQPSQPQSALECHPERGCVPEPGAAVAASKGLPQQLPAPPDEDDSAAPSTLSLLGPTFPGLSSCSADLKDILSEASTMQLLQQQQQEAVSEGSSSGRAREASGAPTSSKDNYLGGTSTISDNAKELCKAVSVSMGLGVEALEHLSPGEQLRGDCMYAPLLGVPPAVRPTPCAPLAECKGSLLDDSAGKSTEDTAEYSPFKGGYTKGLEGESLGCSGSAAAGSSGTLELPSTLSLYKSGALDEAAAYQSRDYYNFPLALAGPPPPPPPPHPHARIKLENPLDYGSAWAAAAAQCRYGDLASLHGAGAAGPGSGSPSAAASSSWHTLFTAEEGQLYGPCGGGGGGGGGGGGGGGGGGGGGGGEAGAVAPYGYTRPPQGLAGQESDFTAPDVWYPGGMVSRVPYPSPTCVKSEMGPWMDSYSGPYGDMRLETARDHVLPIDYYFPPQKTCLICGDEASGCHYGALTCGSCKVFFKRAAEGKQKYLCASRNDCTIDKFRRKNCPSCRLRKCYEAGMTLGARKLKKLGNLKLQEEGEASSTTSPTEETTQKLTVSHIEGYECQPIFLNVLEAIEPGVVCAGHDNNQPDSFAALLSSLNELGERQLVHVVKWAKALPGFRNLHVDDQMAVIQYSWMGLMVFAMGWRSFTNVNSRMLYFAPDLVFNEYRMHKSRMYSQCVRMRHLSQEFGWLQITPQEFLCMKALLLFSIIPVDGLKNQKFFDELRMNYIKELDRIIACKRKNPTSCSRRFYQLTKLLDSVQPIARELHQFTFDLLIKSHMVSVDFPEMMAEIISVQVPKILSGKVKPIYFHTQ
Chain of Adenosine receptor A1 (Homo sapiens) (P30542 whole entry): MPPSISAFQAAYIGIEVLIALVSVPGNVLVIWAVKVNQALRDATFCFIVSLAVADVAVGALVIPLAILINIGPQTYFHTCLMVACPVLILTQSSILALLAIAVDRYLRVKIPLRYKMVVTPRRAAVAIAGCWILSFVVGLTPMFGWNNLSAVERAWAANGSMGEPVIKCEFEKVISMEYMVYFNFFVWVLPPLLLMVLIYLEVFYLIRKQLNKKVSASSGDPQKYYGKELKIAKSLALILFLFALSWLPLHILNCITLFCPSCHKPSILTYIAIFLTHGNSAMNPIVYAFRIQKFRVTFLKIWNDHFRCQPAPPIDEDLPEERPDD
Chain of Glutamate receptor ionotropic, NMDA 2A (Rattus norvegicus) (Q00959 23-1464 limits assumed): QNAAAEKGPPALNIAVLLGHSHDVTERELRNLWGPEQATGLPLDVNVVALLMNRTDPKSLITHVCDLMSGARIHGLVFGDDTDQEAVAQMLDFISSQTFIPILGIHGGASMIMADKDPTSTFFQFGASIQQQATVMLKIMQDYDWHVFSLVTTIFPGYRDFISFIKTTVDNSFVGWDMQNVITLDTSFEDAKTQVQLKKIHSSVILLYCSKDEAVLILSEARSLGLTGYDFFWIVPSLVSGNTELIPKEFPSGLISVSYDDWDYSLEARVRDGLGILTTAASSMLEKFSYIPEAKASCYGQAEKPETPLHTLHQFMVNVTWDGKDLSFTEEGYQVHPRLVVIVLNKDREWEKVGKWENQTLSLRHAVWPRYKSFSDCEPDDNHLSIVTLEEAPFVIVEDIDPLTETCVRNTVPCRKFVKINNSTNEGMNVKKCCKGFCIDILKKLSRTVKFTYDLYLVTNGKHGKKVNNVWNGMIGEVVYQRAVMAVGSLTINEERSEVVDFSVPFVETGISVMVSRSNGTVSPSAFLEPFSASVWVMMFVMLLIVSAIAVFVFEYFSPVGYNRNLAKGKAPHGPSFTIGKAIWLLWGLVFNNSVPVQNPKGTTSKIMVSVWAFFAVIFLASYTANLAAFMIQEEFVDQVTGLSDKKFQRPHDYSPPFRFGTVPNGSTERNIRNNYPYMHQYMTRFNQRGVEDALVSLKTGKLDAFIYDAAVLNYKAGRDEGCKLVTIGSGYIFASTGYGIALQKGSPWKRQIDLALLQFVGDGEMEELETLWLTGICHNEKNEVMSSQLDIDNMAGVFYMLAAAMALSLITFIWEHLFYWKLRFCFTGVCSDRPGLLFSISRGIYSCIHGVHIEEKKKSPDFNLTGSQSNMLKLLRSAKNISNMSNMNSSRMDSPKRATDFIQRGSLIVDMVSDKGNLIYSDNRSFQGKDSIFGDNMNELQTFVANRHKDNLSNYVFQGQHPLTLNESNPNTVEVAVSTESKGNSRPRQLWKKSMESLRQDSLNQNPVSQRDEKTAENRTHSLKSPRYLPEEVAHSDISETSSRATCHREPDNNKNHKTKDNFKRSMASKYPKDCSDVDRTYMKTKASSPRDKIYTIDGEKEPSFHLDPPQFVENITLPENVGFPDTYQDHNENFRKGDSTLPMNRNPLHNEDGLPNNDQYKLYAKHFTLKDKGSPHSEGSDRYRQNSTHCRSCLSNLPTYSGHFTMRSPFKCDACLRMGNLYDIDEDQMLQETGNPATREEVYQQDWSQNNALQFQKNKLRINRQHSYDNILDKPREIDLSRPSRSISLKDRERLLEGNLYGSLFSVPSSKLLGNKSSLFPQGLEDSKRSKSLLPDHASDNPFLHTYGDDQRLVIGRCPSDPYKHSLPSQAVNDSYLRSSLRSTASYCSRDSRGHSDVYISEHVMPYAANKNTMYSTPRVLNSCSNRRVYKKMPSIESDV
Chain of Neuropeptide Y receptor type 1 (Homo sapiens) (P25929 whole entry): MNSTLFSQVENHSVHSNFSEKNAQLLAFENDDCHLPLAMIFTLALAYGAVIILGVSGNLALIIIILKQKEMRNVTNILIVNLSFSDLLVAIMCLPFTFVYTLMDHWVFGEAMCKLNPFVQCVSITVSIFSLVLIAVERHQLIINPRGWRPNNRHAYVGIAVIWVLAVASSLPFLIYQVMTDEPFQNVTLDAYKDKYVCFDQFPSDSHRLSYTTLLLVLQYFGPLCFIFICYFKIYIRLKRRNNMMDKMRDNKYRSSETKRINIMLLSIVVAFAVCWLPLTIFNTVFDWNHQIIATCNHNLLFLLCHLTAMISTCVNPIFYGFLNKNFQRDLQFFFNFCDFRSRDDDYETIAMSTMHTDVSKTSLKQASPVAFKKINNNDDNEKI
Chain of Endothelin-1 receptor (Homo sapiens) (P25101 whole entry): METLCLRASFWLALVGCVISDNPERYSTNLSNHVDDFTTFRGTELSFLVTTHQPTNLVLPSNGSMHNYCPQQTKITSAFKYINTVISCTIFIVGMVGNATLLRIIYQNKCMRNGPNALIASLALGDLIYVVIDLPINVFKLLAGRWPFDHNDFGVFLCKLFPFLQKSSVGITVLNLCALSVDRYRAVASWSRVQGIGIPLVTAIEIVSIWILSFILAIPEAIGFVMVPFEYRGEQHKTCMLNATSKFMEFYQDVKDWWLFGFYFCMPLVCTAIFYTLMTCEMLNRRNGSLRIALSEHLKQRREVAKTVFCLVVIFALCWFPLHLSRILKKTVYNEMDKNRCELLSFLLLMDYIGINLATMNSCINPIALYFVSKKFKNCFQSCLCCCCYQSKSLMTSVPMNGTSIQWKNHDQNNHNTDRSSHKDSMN

Compound: COCCCS(=O)(=O)c1cc(C)c(-c2ccc(F)c3c2CC[C@H]3Oc2ccc3c(c2)OC[C@H]3CC(=O)O)c(C)c1
- activity at 10 µM [1]: 94% (not active)
- residual activity [2]: 99%
- residual activity [3]: 89%
- residual activity [4]: 115%
- residual activity [5]: 96%
- residual activity [6]: 87%
- residual activity [7]: 56%
- residual activity [8]: 101%
- residual activity [9]: 102%

- inhibition [12]: -8.92%
- Ki [21]: > 10 µM
- pKi [21]: < 5
Compound: Cc1cc(OCCC(C)(C)O)cc(C)c1-c1ccc(F)c2c1CC[C@H]2Oc1ccc2c(c1)OC[C@H]2CC(=O)O
- residual activity ([10]; Compound concentration 0.3 uM): 90%
- residual activity ([10]; Compound concentration 1.0 uM): 87%
- residual activity ([10]; Compound concentration 3.0 uM): 68%
- residual activity ([10]; Compound concentration 10.0 uM): 39%
- residual activity ([10]; Compound concentration 30.0 uM): 17%
- residual activity [11]: 113%
- residual activity [13]: 89%
- residual activity [14]: 95%
- residual activity [15]: 75%
- residual activity [16]: 82%
- residual activity [17]: 109%
- residual activity [18]: 73%
- residual activity [19]: 68%
- residual activity [20]: 85%
- residual activity [22]: 95%
- residual activity [23]: 108%
- residual activity [24]: 67%
